Columns and labels:
[1] = target: Atypical kinase COQ8B, mitochondrial (Homo sapiens) (UniProt Q96D53); conditions: Compound concentration 1000.0 nM
[2] = target: Angiotensin-converting enzyme 2 (Homo sapiens) (UniProt Q9BYF1); assay: ACE-2(HU) Cerep selectivity data (BI); conditions: Compound concentration 20.0 uM
[3] = target: Substance-K receptor (Homo sapiens) (UniProt P21452); assay: NK2/H Cerep selectivity data (BI); conditions: Compound concentration 20.0 uM
[4] = target: Nicotinic acetylcholine receptor alpha-1/beta-1 (Homo sapiens) (UniProt P02708+P11230); assay: NMUSCLEH_ANTAG Cerep selectivity data (BI); assay type: protein-complex assay; conditions: filed as antagonist, Compound concentration 20.0 uM
[5] = target: Endothelin-1 receptor (Homo sapiens) (UniProt P25101); assay: ETA/HU Eurofins-Panlabs selectivity data (BI); conditions: Compound concentration 10.0 uM
Chain of Endothelin-1 receptor (Homo sapiens) (P25101 whole entry): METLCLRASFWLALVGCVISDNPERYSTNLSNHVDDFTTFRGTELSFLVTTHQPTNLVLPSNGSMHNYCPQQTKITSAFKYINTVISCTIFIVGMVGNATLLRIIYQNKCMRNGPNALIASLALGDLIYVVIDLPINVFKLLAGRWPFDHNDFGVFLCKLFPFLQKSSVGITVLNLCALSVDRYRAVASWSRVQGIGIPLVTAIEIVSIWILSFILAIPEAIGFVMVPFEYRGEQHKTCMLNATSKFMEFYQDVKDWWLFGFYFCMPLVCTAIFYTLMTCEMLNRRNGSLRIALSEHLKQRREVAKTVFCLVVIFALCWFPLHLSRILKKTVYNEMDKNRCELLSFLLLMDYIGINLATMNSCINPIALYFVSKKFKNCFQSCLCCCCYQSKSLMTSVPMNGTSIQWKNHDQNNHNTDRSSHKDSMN

[6] = target: Muscarinic acetylcholine receptor M3 (Homo sapiens) (UniProt P20309); assay: M3/HU Eurofins-Panlabs selectivity data (BI); conditions: Compound concentration 10.0 uM
Chain of Muscarinic acetylcholine receptor M3 (Homo sapiens) (P20309 whole entry, looked up): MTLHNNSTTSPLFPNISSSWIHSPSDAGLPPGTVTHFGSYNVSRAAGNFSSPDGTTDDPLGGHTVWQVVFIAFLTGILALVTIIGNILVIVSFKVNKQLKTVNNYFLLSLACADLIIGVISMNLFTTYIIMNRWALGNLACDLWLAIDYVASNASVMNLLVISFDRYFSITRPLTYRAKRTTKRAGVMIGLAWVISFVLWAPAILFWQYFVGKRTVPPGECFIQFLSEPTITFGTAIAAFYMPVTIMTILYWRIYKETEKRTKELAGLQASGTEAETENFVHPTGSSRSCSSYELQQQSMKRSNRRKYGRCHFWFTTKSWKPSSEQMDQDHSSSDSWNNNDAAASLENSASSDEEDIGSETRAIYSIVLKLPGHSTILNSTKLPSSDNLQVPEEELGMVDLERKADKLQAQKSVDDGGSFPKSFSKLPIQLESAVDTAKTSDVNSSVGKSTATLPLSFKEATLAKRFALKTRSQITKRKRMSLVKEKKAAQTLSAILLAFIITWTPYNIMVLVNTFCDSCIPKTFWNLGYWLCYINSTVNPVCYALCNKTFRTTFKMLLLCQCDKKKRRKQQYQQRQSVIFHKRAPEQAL

[7] = target: P2X purinoceptor (Oryctolagus cuniculus) (UniProt G1U3D6); assay: P2X/RB Eurofins-Panlabs selectivity data (BI); conditions: Compound concentration 10.0 uM
Chain of P2X purinoceptor (Oryctolagus cuniculus) (G1U3D6 as listed by the source): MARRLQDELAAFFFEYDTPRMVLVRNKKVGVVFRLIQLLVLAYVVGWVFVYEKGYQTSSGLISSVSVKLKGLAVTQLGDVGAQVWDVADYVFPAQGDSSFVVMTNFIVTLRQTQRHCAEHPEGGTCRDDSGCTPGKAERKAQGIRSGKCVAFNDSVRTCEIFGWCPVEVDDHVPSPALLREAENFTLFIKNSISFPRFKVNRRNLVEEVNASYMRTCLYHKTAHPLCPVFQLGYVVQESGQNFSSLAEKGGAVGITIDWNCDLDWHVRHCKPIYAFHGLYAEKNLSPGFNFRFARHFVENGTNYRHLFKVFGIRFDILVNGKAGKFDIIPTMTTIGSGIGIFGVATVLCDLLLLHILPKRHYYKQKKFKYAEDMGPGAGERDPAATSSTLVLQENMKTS

[8] = target: T1, Ephrin type-A receptor 8 (Homo sapiens) (UniProt P29322); assay: EPHA8 Invitrogen selectivity data (BI); conditions: Compound concentration 3.0 uM
T1 sequence (whole entry): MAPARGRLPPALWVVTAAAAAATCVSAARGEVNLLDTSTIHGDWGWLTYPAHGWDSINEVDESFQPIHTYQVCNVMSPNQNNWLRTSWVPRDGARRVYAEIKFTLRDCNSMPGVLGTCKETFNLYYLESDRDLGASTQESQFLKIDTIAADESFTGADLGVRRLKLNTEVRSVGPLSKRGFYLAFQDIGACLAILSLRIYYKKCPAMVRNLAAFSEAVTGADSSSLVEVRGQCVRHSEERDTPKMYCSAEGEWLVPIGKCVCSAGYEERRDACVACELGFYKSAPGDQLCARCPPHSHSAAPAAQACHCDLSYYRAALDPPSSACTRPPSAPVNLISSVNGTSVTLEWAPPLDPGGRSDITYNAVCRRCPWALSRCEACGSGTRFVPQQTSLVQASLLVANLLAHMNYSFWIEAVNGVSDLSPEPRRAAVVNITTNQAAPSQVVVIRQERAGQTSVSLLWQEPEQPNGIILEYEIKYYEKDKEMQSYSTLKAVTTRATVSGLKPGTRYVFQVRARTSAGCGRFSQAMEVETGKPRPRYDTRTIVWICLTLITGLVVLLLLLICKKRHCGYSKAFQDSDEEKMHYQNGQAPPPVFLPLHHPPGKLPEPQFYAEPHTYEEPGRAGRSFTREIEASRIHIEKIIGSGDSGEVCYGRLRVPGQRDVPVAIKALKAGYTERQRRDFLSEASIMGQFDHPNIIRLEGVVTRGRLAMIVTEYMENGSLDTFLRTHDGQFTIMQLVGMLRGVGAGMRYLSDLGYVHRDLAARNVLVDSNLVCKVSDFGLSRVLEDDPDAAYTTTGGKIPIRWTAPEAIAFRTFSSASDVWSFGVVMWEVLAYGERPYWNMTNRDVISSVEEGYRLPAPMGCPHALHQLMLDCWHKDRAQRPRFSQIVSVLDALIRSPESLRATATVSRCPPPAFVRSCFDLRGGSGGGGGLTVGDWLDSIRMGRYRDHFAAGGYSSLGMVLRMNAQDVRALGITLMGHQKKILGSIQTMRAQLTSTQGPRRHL

[9] = target: Homeodomain-interacting protein kinase 3 (Homo sapiens) (UniProt Q9H422); assay: HIPK3 Invitrogen selectivity data (BI); conditions: Compound concentration 3.0 uM
Chain of Homeodomain-interacting protein kinase 3 (Homo sapiens) (Q9H422 whole entry, looked up): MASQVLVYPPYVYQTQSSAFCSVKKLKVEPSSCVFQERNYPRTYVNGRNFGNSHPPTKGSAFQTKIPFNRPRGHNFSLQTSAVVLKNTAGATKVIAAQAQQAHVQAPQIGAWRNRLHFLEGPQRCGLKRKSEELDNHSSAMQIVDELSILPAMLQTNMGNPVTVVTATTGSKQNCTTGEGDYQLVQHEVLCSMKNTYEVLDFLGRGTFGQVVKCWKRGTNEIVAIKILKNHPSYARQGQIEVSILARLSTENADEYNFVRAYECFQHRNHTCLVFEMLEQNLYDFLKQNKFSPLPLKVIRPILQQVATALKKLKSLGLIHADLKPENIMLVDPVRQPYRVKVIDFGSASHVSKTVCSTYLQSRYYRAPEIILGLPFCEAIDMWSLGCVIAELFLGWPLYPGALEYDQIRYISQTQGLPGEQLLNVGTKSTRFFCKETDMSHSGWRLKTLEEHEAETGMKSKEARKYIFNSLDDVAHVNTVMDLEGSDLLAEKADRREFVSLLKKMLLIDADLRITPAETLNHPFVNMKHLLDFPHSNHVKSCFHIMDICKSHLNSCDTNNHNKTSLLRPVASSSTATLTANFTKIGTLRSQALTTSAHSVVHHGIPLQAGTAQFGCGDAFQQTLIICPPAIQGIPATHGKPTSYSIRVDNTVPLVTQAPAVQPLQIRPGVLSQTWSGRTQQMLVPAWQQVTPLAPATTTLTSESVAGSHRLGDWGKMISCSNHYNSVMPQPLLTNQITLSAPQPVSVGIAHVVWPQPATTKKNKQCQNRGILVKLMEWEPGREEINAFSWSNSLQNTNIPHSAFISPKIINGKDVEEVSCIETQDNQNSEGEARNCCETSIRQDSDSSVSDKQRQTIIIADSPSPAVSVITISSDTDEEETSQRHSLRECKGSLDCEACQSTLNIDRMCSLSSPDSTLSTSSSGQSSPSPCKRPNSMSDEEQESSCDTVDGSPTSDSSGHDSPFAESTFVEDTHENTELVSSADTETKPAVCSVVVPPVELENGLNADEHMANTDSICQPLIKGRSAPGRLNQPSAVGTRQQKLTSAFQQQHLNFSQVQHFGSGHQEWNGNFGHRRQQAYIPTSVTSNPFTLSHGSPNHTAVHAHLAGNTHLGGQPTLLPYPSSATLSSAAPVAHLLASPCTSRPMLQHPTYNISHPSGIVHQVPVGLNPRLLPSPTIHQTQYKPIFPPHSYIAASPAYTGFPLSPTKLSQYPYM

[10] = target: Leukocyte tyrosine kinase receptor (Homo sapiens) (UniProt P29376); assay: LTK Invitrogen selectivity data (BI); conditions: Compound concentration 3.0 uM
Chain of Leukocyte tyrosine kinase receptor (Homo sapiens) (P29376 whole entry): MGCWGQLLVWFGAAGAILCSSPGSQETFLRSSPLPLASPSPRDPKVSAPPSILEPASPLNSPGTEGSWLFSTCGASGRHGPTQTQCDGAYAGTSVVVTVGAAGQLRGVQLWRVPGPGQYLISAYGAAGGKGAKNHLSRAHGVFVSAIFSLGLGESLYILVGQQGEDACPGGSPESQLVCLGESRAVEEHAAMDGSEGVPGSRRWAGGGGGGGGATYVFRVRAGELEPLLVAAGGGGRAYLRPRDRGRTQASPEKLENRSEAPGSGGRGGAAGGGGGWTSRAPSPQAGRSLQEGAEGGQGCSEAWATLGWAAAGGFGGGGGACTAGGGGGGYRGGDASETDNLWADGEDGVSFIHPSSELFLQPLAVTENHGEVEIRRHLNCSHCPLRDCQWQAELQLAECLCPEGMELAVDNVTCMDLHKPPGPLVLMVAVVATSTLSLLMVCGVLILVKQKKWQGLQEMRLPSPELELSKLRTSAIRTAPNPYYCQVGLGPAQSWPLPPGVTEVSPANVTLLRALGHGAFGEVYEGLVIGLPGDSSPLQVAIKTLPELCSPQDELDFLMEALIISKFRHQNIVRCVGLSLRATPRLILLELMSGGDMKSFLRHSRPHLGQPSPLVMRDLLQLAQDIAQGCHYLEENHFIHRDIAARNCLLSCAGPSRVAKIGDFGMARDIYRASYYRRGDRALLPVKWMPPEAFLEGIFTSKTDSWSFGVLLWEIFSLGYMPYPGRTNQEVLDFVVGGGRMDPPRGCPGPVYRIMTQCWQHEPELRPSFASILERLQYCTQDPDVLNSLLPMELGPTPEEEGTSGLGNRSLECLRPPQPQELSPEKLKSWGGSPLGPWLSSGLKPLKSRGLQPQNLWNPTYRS

[11] = target: Hepatocyte growth factor receptor (Homo sapiens) (UniProt P08581); assay: MET Invitrogen selectivity data (BI); conditions: Compound concentration 3.0 uM
[12] = target: T2, Serine/threonine-protein kinase Sgk2 (Homo sapiens) (UniProt Q9HBY8); assay: SGK2 Invitrogen selectivity data (BI); conditions: Compound concentration 3.0 uM
T2 sequence (whole entry): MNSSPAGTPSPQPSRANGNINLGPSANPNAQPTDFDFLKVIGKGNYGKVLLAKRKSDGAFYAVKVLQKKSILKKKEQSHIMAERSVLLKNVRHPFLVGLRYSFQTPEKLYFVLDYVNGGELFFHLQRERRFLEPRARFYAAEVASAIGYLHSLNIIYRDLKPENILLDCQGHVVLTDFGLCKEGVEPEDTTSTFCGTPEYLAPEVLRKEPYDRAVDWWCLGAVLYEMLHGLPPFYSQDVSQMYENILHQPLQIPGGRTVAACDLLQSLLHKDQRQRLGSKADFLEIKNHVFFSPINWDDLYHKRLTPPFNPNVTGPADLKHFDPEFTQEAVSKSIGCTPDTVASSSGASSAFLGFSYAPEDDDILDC

[13] = target: T3, Aurora kinase A (Homo sapiens) (UniProt O14965); assay: STK6 Invitrogen selectivity data (BI); conditions: Compound concentration 3.0 uM
T3 sequence (whole entry): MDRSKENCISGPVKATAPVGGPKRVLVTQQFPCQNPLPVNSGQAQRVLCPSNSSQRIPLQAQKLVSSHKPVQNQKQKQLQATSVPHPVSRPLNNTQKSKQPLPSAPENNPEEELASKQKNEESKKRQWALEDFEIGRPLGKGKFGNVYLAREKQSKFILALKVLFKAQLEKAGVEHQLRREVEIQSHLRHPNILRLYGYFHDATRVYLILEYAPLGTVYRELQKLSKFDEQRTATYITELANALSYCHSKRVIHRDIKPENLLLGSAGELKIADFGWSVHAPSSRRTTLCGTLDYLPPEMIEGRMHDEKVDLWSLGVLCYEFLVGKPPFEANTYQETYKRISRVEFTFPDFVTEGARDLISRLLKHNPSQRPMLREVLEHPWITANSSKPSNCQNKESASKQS

Measured: residual activity

Chain of Angiotensin-converting enzyme 2 (Homo sapiens) (Q9BYF1 18-805 limits assumed): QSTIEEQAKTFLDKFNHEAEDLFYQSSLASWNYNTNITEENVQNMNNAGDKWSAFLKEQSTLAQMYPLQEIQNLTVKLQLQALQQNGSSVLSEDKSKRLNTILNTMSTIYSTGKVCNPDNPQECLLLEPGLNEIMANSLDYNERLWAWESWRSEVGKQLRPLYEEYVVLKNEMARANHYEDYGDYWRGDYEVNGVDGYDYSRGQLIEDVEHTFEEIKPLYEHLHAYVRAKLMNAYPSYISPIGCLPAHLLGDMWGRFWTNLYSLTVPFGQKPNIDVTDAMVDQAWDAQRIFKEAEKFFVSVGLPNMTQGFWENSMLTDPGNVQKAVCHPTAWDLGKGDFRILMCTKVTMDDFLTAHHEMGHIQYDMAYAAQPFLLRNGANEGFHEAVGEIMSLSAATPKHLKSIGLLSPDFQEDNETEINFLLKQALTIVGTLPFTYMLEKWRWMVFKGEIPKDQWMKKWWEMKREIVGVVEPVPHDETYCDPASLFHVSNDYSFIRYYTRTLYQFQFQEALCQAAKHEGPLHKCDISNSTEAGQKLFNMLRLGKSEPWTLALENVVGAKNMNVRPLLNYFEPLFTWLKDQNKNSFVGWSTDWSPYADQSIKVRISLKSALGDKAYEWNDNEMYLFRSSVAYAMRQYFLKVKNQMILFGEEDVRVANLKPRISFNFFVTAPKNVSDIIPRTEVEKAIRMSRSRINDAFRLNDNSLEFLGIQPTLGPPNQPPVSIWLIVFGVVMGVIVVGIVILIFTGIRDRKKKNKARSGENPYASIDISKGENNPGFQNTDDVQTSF
Chain of Atypical kinase COQ8B, mitochondrial (Homo sapiens) (Q96D53 whole entry): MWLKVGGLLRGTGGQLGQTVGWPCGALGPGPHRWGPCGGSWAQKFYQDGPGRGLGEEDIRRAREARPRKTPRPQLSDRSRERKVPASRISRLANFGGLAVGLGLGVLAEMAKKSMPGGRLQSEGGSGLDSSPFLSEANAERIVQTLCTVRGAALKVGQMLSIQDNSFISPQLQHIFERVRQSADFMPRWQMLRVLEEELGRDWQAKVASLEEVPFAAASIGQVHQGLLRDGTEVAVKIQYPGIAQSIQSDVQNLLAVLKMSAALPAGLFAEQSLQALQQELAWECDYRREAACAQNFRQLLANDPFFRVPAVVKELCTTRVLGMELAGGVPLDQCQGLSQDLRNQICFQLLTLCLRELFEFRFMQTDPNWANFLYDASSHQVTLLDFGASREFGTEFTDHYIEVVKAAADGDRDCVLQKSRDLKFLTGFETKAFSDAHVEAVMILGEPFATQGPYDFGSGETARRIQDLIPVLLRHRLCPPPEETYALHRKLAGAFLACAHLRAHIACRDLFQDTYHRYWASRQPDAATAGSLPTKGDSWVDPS

CN(C)C(=O)Cn1cc(-c2nc(C3(c4ccc(-c5cnc(N)nc5)cc4)CC3)no2)cn1 [BI 0153]
inactive: [1] 100%

CN(C)C(=O)Cn1cc(-c2nc([C@@](C)(c3ccc(-c4cnc(N)nc4)cc3)C3CC3)no2)cn1 [BI 665915]
inactive: [2] 132% | [3] 102% | [4] 120% | [5] 98% | [6] 105% | [7] 111% | [8] 98.5% | [9] 99% | [10] 96.5% | [11] 97% | [12] 97% | [13] 75.5%

Reference: ChEMBL document CHEMBL4507276 (2021)
